Assays:
human RIPK1 = human RIPK1 (Homo sapiens (Human), UniProt Q13546); test: KINOMEscan binding assay, human RIPK1; conditions: Table 21
Outline: (§1)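 Tagged kinase + immobilized ligand beads + compound; eluted kinase quantified by qPCR. Kinase source: T7 phage lysate (BL21-derived E. coli, 32 °C) or HEK-293 with DNA tag. 11-pt 3-fold series, 1% DMSO, top 30,000 nM (most). Hill fit, slope −1 → Kd.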

human RIPK3 = human RIPK3 (Homo sapiens (Human), UniProt Q9Y572); test: KINOMEscan binding assay, human RIPK3; conditions: Table 21
Outline: as §1

endogenous MLKL in MDF = endogenous MLKL in MDF (Mus musculus (Mouse), UniProt Q9D2Y4); test: Degradation assay: endogenous MLKL in MDF (western blot); conditions: MDF cells, 24 h incubation with compound, MLKL adjusted for loading with GAPDH, normalized to DMSO only control, read-out: Degradation of endogenous MLKL in MDF (DC50 cell-based assay)
Outline: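 Western blot band intensity of MLKL, adjusted to GAPDH loading and normalized to DMSO-only wells, gave percent degradation. Compound exposure lasted 24 h at final concentrations of 10–0.016 μM in 1:5 steps, in mouse dermal fibroblasts or human U937 cells.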

human RIPK1, sequence (Q13546 whole entry): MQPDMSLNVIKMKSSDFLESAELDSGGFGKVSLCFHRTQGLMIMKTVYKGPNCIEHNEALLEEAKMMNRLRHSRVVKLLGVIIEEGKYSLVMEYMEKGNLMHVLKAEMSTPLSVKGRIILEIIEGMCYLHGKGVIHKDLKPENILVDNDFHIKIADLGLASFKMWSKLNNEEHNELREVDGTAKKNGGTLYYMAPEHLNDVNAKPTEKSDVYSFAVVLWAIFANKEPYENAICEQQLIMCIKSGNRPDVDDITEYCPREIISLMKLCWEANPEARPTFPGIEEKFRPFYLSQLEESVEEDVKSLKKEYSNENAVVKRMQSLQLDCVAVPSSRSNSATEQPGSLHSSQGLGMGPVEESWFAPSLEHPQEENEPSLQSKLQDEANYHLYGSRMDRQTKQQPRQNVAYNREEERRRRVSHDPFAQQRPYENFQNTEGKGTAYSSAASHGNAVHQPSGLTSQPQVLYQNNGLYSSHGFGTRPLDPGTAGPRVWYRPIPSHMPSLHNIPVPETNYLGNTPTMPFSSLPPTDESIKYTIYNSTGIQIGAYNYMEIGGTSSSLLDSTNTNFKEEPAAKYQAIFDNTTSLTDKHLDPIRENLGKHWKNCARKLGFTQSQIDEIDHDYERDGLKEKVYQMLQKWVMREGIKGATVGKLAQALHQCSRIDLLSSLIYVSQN
human RIPK3, sequence (Q9Y572 whole entry): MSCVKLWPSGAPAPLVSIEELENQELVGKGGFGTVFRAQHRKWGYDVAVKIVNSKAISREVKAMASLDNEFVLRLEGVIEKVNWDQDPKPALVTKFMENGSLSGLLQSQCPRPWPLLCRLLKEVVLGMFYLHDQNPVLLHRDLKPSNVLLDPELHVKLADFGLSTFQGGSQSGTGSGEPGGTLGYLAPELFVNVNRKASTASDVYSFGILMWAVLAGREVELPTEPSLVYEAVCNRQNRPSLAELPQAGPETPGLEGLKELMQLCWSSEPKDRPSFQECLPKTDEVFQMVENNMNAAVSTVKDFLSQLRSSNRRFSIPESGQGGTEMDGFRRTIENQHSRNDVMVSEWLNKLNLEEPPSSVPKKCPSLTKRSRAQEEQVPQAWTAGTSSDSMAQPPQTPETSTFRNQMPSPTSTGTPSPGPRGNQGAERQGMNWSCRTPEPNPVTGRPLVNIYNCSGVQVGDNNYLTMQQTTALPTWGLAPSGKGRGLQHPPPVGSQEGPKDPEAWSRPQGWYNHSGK
endogenous MLKL in MDF, sequence (Q9D2Y4 whole entry): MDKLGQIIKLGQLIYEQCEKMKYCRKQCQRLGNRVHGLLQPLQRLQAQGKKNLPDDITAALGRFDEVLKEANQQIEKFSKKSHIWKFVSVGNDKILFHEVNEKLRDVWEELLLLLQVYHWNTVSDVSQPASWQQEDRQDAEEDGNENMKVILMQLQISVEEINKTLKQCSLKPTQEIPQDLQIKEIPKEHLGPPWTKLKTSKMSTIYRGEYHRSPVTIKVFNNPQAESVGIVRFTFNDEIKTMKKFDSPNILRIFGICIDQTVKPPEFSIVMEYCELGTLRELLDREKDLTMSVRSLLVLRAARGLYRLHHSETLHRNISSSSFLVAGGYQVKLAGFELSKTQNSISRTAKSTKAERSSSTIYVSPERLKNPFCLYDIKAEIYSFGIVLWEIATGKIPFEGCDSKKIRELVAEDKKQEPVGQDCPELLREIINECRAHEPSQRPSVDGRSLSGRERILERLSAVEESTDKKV

Kd (human RIPK1) [µM]	Kd (human RIPK3) [µM]	DC50 (endogenous MLKL in MDF) [µM]	Compound
> 10	> 10	–	Nc1ncc(-c2cnn(C3CCOCC3)c2)c2[nH]nc(-c3ccc(NS(=O)(=O)C(F)F)c(OCc4cccc(Cl)c4)c3)c12 [Compound 131]
–	–	< 1	C[C@H](Oc1cc(-c2nn(C)c3c(-c4cnn(CCCCCCCOc5cccc6c5C(=O)N(C5CCC(=O)NC5=O)C6=O)c4)cnc(N)c23)ccc1NS(=O)(=O)C(F)F)c1ccc(F)cc1 (some centres unmarked) [Compound 1031, N-(4-{4-amino-7-[1-(7-{[2-(2,6-dioxopiperidin-3-yl)-1,3-dioxo-2,3-dihydro-1H-isoindol-4-yl]oxy}heptyl)-1H-pyrazol-4-yl]-1-methyl-1H-pyrazolo[4,3-c]pyridin-3-yl}-2-[(1 S)-1-(4-fluorophenyl)ethoxy]phenyl)-1,1-difluoromethanesulfonamide]
> 10	> 10	–	N-(4-(4-amino-1-methyl-7-(1-(1,2,2-trimethylpiperidin-4-yl)-1H-pyrazol-4-yl)-1H-pyrazolo[4,3-c]pyridin-3-yl)-2-((S)-1-(4-fluorophenyl)ethoxy)phenyl)-1,1-difluoromethanesulfonamide [Compound 113]
